Source: PubChem BioAssay (NCI)
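Dose response: 5 concentrations. Exposure: 48 h. Format: 96-well plates. Endpoint: linear interpolation; highest concentration if not reached. Abbreviation: GI50, concentration required for 50% inhibition of growth. The concentration for full growth arrest is given as TGI.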

Columns and labels:
Assay in all cases: NCI-60 cell line screen, 48 h
[1] = test system: OVCAR-8 ovarian
[2] = test system: HCT-15 colon
[3] = test system: KM12 colon
[4] = test system: HT29 colon
[5] = test system: CCRF-CEM leukemia
[6] = test system: RPMI-8226 leukemia
[7] = test system: SNB-19 CNS
[8] = test system: OVCAR-4 ovarian
[9] = test system: NCI/ADR-RES ovarian
[10] = test system: MALME-3M melanoma
[11] = test system: 786-0 renal
[12] = test system: MCF7 breast
[13] = test system: OVCAR-3 ovarian
[14] = test system: HS 578T breast
[15] = test system: MOLT-4 leukemia
[16] = test system: A549 NSCLC
[17] = test system: EKVX NSCLC
[18] = test system: CAKI-1 renal
[19] = test system: SK-MEL-5 melanoma
[20] = test system: NCI-H522 lung
[21] = test system: DU-145 prostate
[22] = test system: LOX IMVI melanoma
[23] = test system: NCI-H460 lung
[24] = test system: MDA-MB-231 breast
[25] = test system: UO-31 renal
[26] = test system: NCI-H23 lung
[27] = test system: SK-MEL-28 melanoma
[28] = test system: UACC-62 melanoma
[29] = test system: MDA-MB-435
[30] = test system: SK-MEL-2 melanoma
[31] = test system: HL-60(TB) leukemia
[32] = test system: HCC-2998 colon
[33] = test system: T-47D breast
[34] = test system: SF-268 CNS
[35] = test system: COLO 205 colon
[36] = test system: HOP-92 NSCLC
[37] = test system: SR leukemia
[38] = test system: SK-OV-3 ovarian
[39] = test system: HOP-62 NSCLC
[40] = test system: ACHN renal
[41] = test system: A498 renal
[42] = test system: SN12C renal
[43] = test system: SF-539 CNS
[44] = test system: M14 melanoma
[45] = test system: SNB-75 CNS
[46] = test system: K-562 leukemia
[47] = test system: TK-10 renal
[48] = test system: IGROV1 ovarian
[49] = test system: PC-3 prostate
[50] = test system: NCI-H226 lung
[51] = test system: U251 CNS
[52] = test system: UACC-257 melanoma
[53] = test system: SF-295 CNS
[54] = test system: OVCAR-5 ovarian
[55] = test system: RXF 393 renal
[56] = test system: BT-549 breast
[57] = test system: SW-620 colon
[58] = test system: HCT-116 colon

COc1cc2cc(C(=O)Nc3ccccc3)c(N)nc2cc1OC
GI50 [1]: 33.5 µM | TGI [1]: > 100 µM | GI50 [2]: 31.3 µM | TGI [2]: > 100 µM | GI50 [3]: 46 µM | TGI [3]: > 100 µM | GI50 [4]: 51.5 µM | TGI [4]: > 100 µM | GI50 [5]: 35.9 µM | TGI [5]: > 100 µM | GI50 [6]: 28.3 µM | TGI [6]: > 100 µM | GI50 [7]: > 100 µM | TGI [7]: > 100 µM | GI50 [8]: 29.8 µM | TGI [8]: > 100 µM | GI50 [9]: 28.4 µM | TGI [9]: > 100 µM | GI50 [10]: 44.3 µM | TGI [10]: > 100 µM | GI50 [11]: 31.7 µM | TGI [11]: > 100 µM | GI50 [12]: 48.8 µM | TGI [12]: > 100 µM | GI50 [13]: 50.9 µM | TGI [13]: > 100 µM | GI50 [14]: 62.8 µM | TGI [14]: > 100 µM | GI50 [15]: 38.5 µM | TGI [15]: > 100 µM | GI50 [16]: 63.1 µM | TGI [16]: > 100 µM | GI50 [17]: 73.6 µM | TGI [17]: > 100 µM | GI50 [18]: 34.5 µM | TGI [18]: > 100 µM | GI50 [19]: 22.8 µM | TGI [19]: 88.8 µM | GI50 [20]: 32.7 µM | TGI [20]: > 100 µM | GI50 [21]: 80.3 µM | TGI [21]: > 100 µM | GI50 [22]: 42.3 µM | TGI [22]: > 100 µM | GI50 [23]: 73.9 µM | TGI [23]: > 100 µM | GI50 [24]: 59.6 µM | TGI [24]: > 100 µM | GI50 [25]: 25.7 µM | TGI [25]: > 100 µM | GI50 [26]: 73.9 µM | TGI [26]: > 100 µM | GI50 [27]: 75.4 µM | TGI [27]: > 100 µM | GI50 [28]: 28.6 µM | TGI [28]: > 100 µM | GI50 [29]: 48.7 µM | TGI [29]: > 100 µM | GI50 [30]: 69.1 µM | TGI [30]: > 100 µM | GI50 [31]: 43.6 µM | TGI [31]: > 100 µM | GI50 [32]: 94.4 µM | TGI [32]: > 100 µM | GI50 [33]: 23.6 µM | TGI [33]: > 100 µM | GI50 [34]: 81.8 µM | TGI [34]: > 100 µM | GI50 [35]: 34 µM | TGI [35]: > 100 µM | GI50 [36]: 8.29 µM | TGI [36]: 90.1 µM | GI50 [37]: 33.9 µM | TGI [37]: > 100 µM | GI50 [38]: > 100 µM | TGI [38]: > 100 µM | GI50 [39]: 62.6 µM | TGI [39]: > 100 µM | GI50 [40]: 39.4 µM | TGI [40]: > 100 µM | GI50 [41]: 4.7 µM | TGI [41]: 30.9 µM | GI50 [42]: 53.8 µM | TGI [42]: > 100 µM | GI50 [43]: 71.6 µM | TGI [43]: > 100 µM | GI50 [44]: 33.1 µM | TGI [44]: > 100 µM | GI50 [45]: 29.2 µM | TGI [45]: > 100 µM | GI50 [46]: 41.7 µM | TGI [46]: > 100 µM | GI50 [47]: 63.5 µM | TGI [47]: > 100 µM | GI50 [48]: 56.3 µM | TGI [48]: > 100 µM | GI50 [49]: 31.2 µM | TGI [49]: > 100 µM | GI50 [50]: 54.4 µM | TGI [50]: > 100 µM | GI50 [51]: 43.1 µM | TGI [51]: > 100 µM | GI50 [52]: 39.4 µM | TGI [52]: > 100 µM | GI50 [53]: 46.7 µM | TGI [53]: > 100 µM | GI50 [54]: > 100 µM | TGI [54]: > 100 µM | GI50 [55]: 23.7 µM | TGI [55]: > 100 µM | GI50 [56]: 25.1 µM | TGI [56]: > 100 µM | GI50 [57]: > 100 µM | TGI [57]: > 100 µM | GI50 [58]: 40.4 µM | TGI [58]: > 100 µM
